Entries after “also recorded” stand apart in the source; their conditions may differ.
What was measured:
[1] = system: spontaneously hypertensive rats; assay: Antihypertensive efficacy test in spontaneously hypertensive rats (systolic blood pressure and heart rate by implanted sensor); format: in vivo, rat; details: SHR, 1 mg/kg; for Systolic blood pressure change / Heart rate change: average ± standard error; for Heart rate change: oral
Experimental: 12-week-old spontaneously hypertensive rats (hereinafter referred to as SHR, purchased from Beijing Weitong Lihua Experimental Animal Technology Co., Ltd.) were anesthetized with 2.5% sodium pentobarbital for intraperitoneal injection. After that, the blood pressure sensing catheter of hypertension implant was inserted into their abdominal aorta, while the implant was fixed to the abdominal wall, and then postoperative daily care was performed after suturing.
Rats with systolic blood pressure exceeding 160 mm Hg were divided into 3 groups (control group, compound (A) group and compound (B) group), wherein each group has 8 rats. The control group was administrated 0.5% sodium carboxymethyl cellulose (hereinafter referred to as CMC-Na); the compound (B) group and the compound (A) group were respectively administered the compound (B) and the compound (A), both of which were dissolved by 0.5% CMC-Na, by intragastric administration, at a dose of 1 mg/kg (calculated by the effective dose of valsartan) and a volume calculated by 4 mL/kg.
The systolic blood pressure and heart rate of SHR were compared before and after administration (the systolic blood pressure and heart rate of SHR before administration as reference value), which were detected three times at each time point with the average value recorded.

[2] = Comparative stability of crystalline form III and IV on drying overnight at room temperature (XRD); format: physicochemical
Description: The crystalline form III and the crystalline form IV samples were respectively dried overnight at room temperature.

[3] = Comparative stability test (total impurity content, 25° C., 60% relative humidity); format: physicochemical; details: for total impurity content: packed; for chemical stability relative to the amorphous form: total impurity content
Experimental: The stability of an amorphous form, the crystalline form I, a mixture of the crystalline form I and the crystal II, the crystal II, and the crystalline form III of the compound (A) was investigated. Specifically, the amorphous form, the crystalline form I, the mixture of the crystalline form I and the crystalline form II (weight ratio 1:2), the crystalline form II and the crystalline form III were taken 200 mg respectively to be investigated as follows:
Packing: Polyvinyl chloride (PVC) ziplock bag (the inner layer) was vacuumized, aluminum foil (the middle layer) was vacuumized, and aluminum foil desiccant (the outer layer) was vacuum and filled in with nitrogen;
Inspection conditions: 25° C., 60% relative humidity. The indicator was the total impurity content, which is determined by detection of samples three times at each time point with the average value recorded. The time points for sampling include 0, 1, 2, 3 and 6 months after packing.

[4] = Competition test between crystalline forms at room temperature (ethyl acetate suspension, XRD); format: physicochemical; details: for stability under room temperature relative to the competing form: competition in ethyl acetate suspension
Experimental: Equivalent amounts of crystalline form I and crystalline form II samples were mixed well, added with 0.8 ml ethyl acetate to form a suspension, stirred overnight and detected by XRD.
Equivalent amounts of crystalline form II and form III samples were mixed well, added with 0.2 ml ethyl acetate to form a suspension, which was stirred overnight to obtain a crystalline form II determined by XRD detection.
Equivalent amounts of crystalline form I and form III samples were mixed uniformly, added with 0.2 ml ethyl acetate to form a suspension, which was stirred overnight, to obtain a crystalline form I determined by XRD detection.

[5] = Influences of high temperature and high humidity on the crystalline form II (XRD); format: physicochemical; details: 10 days
Experimental: Two samples of 20 mg the crystalline form II were respectively placed at 60° C. (sealed and shielded from light) and 85% relative humidity (exposed in the air at room temperature and shielded from light), detected by XRD after 10 days and compared with XRD of the crude sample.

[6] = Effects of tabletting processes on the crystalline form II (XRD); format: physicochemical; details: tableted under 20 kg and 25 kg pressure
Experimental: Tabletting method: 50 mg of the crystalline form II was tableted under 20 kg and 25 kg pressure by a single punching machine.
The XRD of the obtained sample powder was compared with the XRD of the crude sample, the results are shown in FIG. 8 (from top to bottom: the crude sample, the sample after 25 kg pressure tabletting and the sample after 20 kg pressure tabletting).

[7] = intragastric, 1 hour after administration
[8] = intragastric, 3 hours after administration
[9] = intragastric, 5 hours after administration
[10] = intragastric, 7 hours after administration
[11] = intragastric, 10 hours after administration
[12] = intragastric, 24 hours after administration
[13] = intragastric, before administration (reference value)
[14] = before administration (reference value)

CCOc1nc2cccc(C(=O)OC(C)OC(=O)OCc3nc(C)c(C)nc3C)c2n1Cc1ccc(-c2ccccc2-c2noc(=O)[n-]2)cc1.[K+] (stereo not shown) [Compound (A)]
effect of lowering heart rate compared with the compound (B) group [1]: more potent with longer-lasting effect of lowering heart rate
antihypertensive effect compared with the compound (B) group ([1]; intragastric): more potent with longer-lasting antihypertensive effect
Systolic blood pressure change [1, 7]: −7.0 ± 3.4 mmHg
Systolic blood pressure change [1, 8]: −34.3 ± 1.9 mmHg
Systolic blood pressure change [1, 9]: −46.5 ± 2.5 mmHg
Systolic blood pressure change [1, 10]: −49.4 ± 4.1 mmHg
Systolic blood pressure change [1, 11]: −45.3 ± 3.3 mmHg
Systolic blood pressure change [1, 12]: −25.9 ± 3.4 mmHg
Systolic blood pressure change [1, 13]: 0.0 ± 0.0 mmHg
Heart rate change ([1]; 1 hour after administration): −3.6 ± 2.4 times/minute
Heart rate change ([1]; 3 hours after administration): −5.0 ± 2.5 times/minute
Heart rate change ([1]; 5 hours after administration): −10.1 ± 3.0 times/minute
Heart rate change ([1]; 7 hours after administration): −17.5 ± 3.0 times/minute
Heart rate change ([1]; 10 hours after administration): −25.4 ± 2.4 times/minute
Heart rate change ([1]; 24 hours after administration): −28.6 ± 8 times/minute
Heart rate change [1, 14]: 0.0 ± 0.0 times/minute

CCOc1nc2cccc(C(=O)OC(C)OC(=O)OCc3nc(C)c(C)nc3C)c2n1Cc1ccc(-c2ccccc2-c2noc(=O)[nH]2)cc1 (stereo not shown) [Compound (B), reference compound]
Systolic blood pressure change [1, 7]: −4.9 ± 4.8 mmHg
Systolic blood pressure change [1, 8]: −22.0 ± 3.6 mmHg
Systolic blood pressure change [1, 9]: −30.5 ± 3.5 mmHg
Systolic blood pressure change [1, 10]: −38.8 ± 2.3 mmHg
Systolic blood pressure change [1, 11]: −33.0 ± 1.7 mmHg
Systolic blood pressure change [1, 12]: −10.2 ± 2.1 mmHg
Systolic blood pressure change [1, 13]: 0.0 ± 0.0 mmHg
Heart rate change ([1]; 1 hour after administration): −3.4 ± 2.6 times/minute
Heart rate change ([1]; 3 hours after administration): −2.33 ± 2.6 times/minute
Heart rate change ([1]; 5 hours after administration): −6.5 ± 2.8 times/minute
Heart rate change ([1]; 7 hours after administration): −6.2 ± 3.0 times/minute
Heart rate change ([1]; 10 hours after administration): −12.3 ± 2.8 times/minute
Heart rate change ([1]; 24 hours after administration): −6.7 ± 2.6 times/minute
Heart rate change [1, 14]: 0.0 ± 0.0 times/minute

CCOc1nc2cccc(C(=O)OC(C)OC(=O)OCc3nc(C)c(C)nc3C)c2n1Cc1ccc(-c2ccccc2-c2noc(=O)[n-]2)cc1.[K+] (stereo not shown) [crystalline form III]
share converted to the crystalline form I ([2]; dried overnight at room temperature, XRD): no more than 30%
stability at room temperature relative to crystalline form IV [2]: superior to that of the crystalline form IV
total impurity content ([3]; 0 months): 1.56%
total impurity content ([3]; 1 month): 2.55%
total impurity content ([3]; 2 months): 2.98%
total impurity content ([3]; 3 months): 3.34%
total impurity content ([3]; 6 months): 3.76%
chemical stability relative to the amorphous form [3]: better than the amorphous form
transformation of crystalline form in competition with form I ([4]; equivalent amounts of form I and form III, ethyl acetate suspension, stirred overnight, XRD): completely transformed into the crystalline form I
transformation of crystalline form in competition with form II ([4]; equivalent amounts of form II and form III, ethyl acetate suspension, stirred overnight, XRD): completely transformed into the crystalline form II

CCOc1nc2cccc(C(=O)OC(C)OC(=O)OCc3nc(C)c(C)nc3C)c2n1Cc1ccc(-c2ccccc2-c2noc(=O)[n-]2)cc1.[K+] (stereo not shown) [crystalline form II]
stability at room temperature relative to crystalline form IV [2]: superior to that of the crystalline form IV
total impurity content ([3]; 0 months): 1.29%
total impurity content ([3]; 1 month): 1.43%
total impurity content ([3]; 2 months): 1.59%
total impurity content ([3]; 3 months): 1.82%
total impurity content ([3]; 6 months): 1.87%
chemical stability relative to the amorphous form [3]: better than the amorphous form
stability under room temperature relative to the competing form [4]: better than that of form I; also recorded: better than that of form III
crystalline form after high temperature ([5]; 60° C., sealed and shielded from light): remains unchanged
crystalline form after high humidity ([5]; 85% relative humidity, room temperature, shielded from light): remains unchanged
crystalline form after tabletting [6]: remains unchanged

CCOc1nc2cccc(C(=O)OC(C)OC(=O)OCc3nc(C)c(C)nc3C)c2n1Cc1ccc(-c2ccccc2-c2noc(=O)[n-]2)cc1.[K+] (stereo not shown) [crystalline form IV]
transformation of crystalline form on drying ([2]; dried at room temperature, XRD): converted to crystalline form I; also recorded: completely transformed into the crystalline form I

CCOc1nc2cccc(C(=O)OC(C)OC(=O)OCc3nc(C)c(C)nc3C)c2n1Cc1ccc(-c2ccccc2-c2noc(=O)[n-]2)cc1.[K+] (stereo not shown) [crystalline form I]
stability at room temperature relative to crystalline form IV [2]: superior to that of the crystalline form IV
total impurity content ([3]; 0 months): 1.11%
total impurity content ([3]; 1 month): 1.62%
total impurity content ([3]; 2 months): 2.34%
total impurity content ([3]; 3 months): 2.49%
total impurity content ([3]; 6 months): 3.10%
chemical stability relative to the amorphous form [3]: better than the amorphous form
stability under room temperature relative to the competing form [4]: better than that of the crystalline form III
content of crystalline form I in the obtained product ([4]; equivalent amounts of form I and form II, ethyl acetate suspension, stirred overnight, XRD): about 5%

CCOc1nc2cccc(C(=O)OC(C)OC(=O)OCc3nc(C)c(C)nc3C)c2n1Cc1ccc(-c2ccccc2-c2noc(=O)[n-]2)cc1.[K+] (stereo not shown) [mixture of crystalline form I and II]
total impurity content ([3]; 0 months): 0.90%
total impurity content ([3]; 1 month): 1.58%
total impurity content ([3]; 2 months): 2.20%
total impurity content ([3]; 3 months): 2.40%
total impurity content ([3]; 6 months): 3.29%
chemical stability relative to the amorphous form [3]: better than the amorphous form
